Where two headings read alike, the source gives them in different places.
Tests used:
1-methylhydantoinase [1] = test: Nucleotide specificity of 1-methylhydantoinase (via carbamoylsarcosinamidohydrolase + sarcosine oxidase); format: biochemical, Arthrobacter species DSM 2563; details: nucleotide 4 mmol/liter
Experimental: Relative activity in % (ATP=100) determined via the reaction sequence catalyzed by carbamoylsarcosinamidohydrolase+sarcosine oxidase:
(§1) The activity determination was carried out as follows: […]
(§2) 2. 1-Methylhydantoin solution: 10 mmol/liter
(§3) Wavelength 546 mn; T=25° C.; light path 1 cm.; final volume 2.03 ml.; extinction coefficient of the dye formed=13 cm^2 /μmol. […]
(§4) ^++ For the investigation according to Points 2, 3b, 4, 5 and 6 given
(§5) 4. Calculation: [formula] Remark: ΔA/min. must not to be more than 0.66; otherwise dilute sample. Lag phase about 5 minutes.

1-methylhydantoinase [2] = test: Activators of 1-methylhydantoinase; format: biochemical, Arthrobacter species DSM 2563
Experimental: Relative activity in % (30 mmol/liter ammonium sulphate (AS)=100)
as §1, §2, §3, §4, §5

1-methylhydantoinase [3] = test: Inhibitors of 1-methylhydantoinase; format: biochemical, Arthrobacter species DSM 2563; details: for relative activity %: 7.5 mM Mg++ in the reaction mixture
Experimental: as §1, §2, §3, §4, §5

1-methylhydantoinase [4] = test: Metal ion dependence of 1-methylhydantoinase activity; format: biochemical, Arthrobacter species DSM 2563
Experimental: Relative activity in % (5 mmol/liter magnesium chloride=100)
as §1
2. 1-Methylhydantoin solution: 10 mmol/liter […]
as §4, §5

1-methylhydantoinase [5] = test: Enzymatic colour test for the determination of creatinine; format: biochemical
Excerpt: 1. Enzymatic colour tetst for the determination of 1-methylhydantoin (1-methylhydantoinase/N-carbamoylsarcosinamidohydrolase/sarcosine oxidase reaction with peroxidase/4-aminoantipyrine/2,4,6-tribromo-3-hydroxybenzoicacid colour indicator system) […]
Corresponding to reagent 1.1. of Example 5, however with the addition of creatinine iminohydrolase, 2 U/ml. (final concentration).
Corresponding to Point 1.2 of Example 5 but, as sample, there are used aqueous creatinine solutions (0.0877 to 1.754 mmol/liter) and the incubation period for P and RL is prolonged to 20 minutes.

1-methylhydantoinase [6] = test: Michaelis constants of 1-methylhydantoinase; format: biochemical, Arthrobacter species DSM 2563; details: pH 7.8
[7] = activator substance 30 mmol/liter

Molecule: Nc1nc2c(ncn2[C@@H]2O[C@H](COP(=O)(O)OP(=O)(O)OP(=O)(O)O)[C@@H](O)[C@H]2O)c(=O)[nH]1 [GTP]
- Relative activity in % (ATP=100) (1-methylhydantoinase [1]): 7%

Molecule: O=S(=O)([O-])[O-].[Li+].[Li+] [Li2 SO4]
- Relative activity in % (30 mmol/liter ammonium sulphate (AS)=100) (1-methylhydantoinase [2]; [7]): 40%

Molecule: Cl.N [NH4 Cl, ammonium chloride]
- Relative activity in % (30 mmol/liter ammonium sulphate (AS)=100) (1-methylhydantoinase [2]; [7]): 91%

Molecule: O=C(O)CN(CCN(CC(=O)O)CC(=O)O)CC(=O)O [EDTA]
- Inhibition (in words) (1-methylhydantoinase [3]): Significant inhibition
- relative activity % (1-methylhydantoinase [3]; EDTA 5 mol/liter (so in the source)): 100%
- relative activity % (1-methylhydantoinase [3]; EDTA 10 mol/liter (so in the source)): 42%
- relative activity % (1-methylhydantoinase [3]; EDTA 50 mol/liter (so in the source)): 2%

Molecule: Nc1ccn([C@@H]2O[C@H](COP(=O)(O)OP(=O)(O)OP(=O)(O)O)[C@@H](O)[C@H]2O)c(=O)n1 [CTP]
- Relative activity in % (ATP=100) (1-methylhydantoinase [1]): 1.5%

Molecule: [Cl-].[Cl-].[Mg+2] [MgCl2, magnesium chloride]
- Relative activity in % (5 mmol/liter magnesium chloride=100) (1-methylhydantoinase [4]; metal salt 1 mmol/liter): 83%
- Relative activity in % (5 mmol/liter magnesium chloride=100) (1-methylhydantoinase [4]; metal salt 5 mmol/liter): 100%
- Relative activity in % (5 mmol/liter magnesium chloride=100) (1-methylhydantoinase [4]; metal salt 10 mmol/liter): 98%

Molecule: [Cl-].[Cl-].[Zn+2] [ZnCl2]
- Relative activity in % (5 mmol/liter magnesium chloride=100) (1-methylhydantoinase [4]; metal salt 5 mmol/liter): 24%

Molecule: CN1CC(=O)NC1=N [creatinine]
- colour reaction (1-methylhydantoinase [5]; creatinine iminohydrolase omitted from Reagent 8.1): no colour reaction

Molecule: CN1CC(=O)NC1=O [1-methylhydantoin]
- Km (1-methylhydantoinase [6]; 0.15 mol/liter TES, via ATP, read-out: Km 1-methylhydantoin): 20 µM

Molecule: O=C(O)O [NaHCO3]
- Relative activity in % (30 mmol/liter ammonium sulphate (AS)=100) (1-methylhydantoinase [2]; [7]): 40%

Molecule: CN(CC(=O)O)C(=N)N [creatine]
- colour reaction (1-methylhydantoinase [5]; creatine solution (884 μmol/liter) as sample instead of creatinine, test batch 8.2): no colour reaction

Molecule: O=P([O-])([O-])OP(=O)([O-])OP(=O)([O-])[O-].[Na+].[Na+].[Na+].[Na+].[Na+] [Na tripolyphosphate]
- Relative activity in % (ATP=100) (1-methylhydantoinase [1]): 0%

Molecule: Na hexametaphosphate
- Relative activity in % (ATP=100) (1-methylhydantoinase [1]): 0%

Molecule: N [NH4^+]
- Activation (in words) (1-methylhydantoinase [2]): Significant activation

Molecule: Cc1cn([C@H]2C[C@H](O)[C@@H](COP(=O)(O)OP(=O)(O)OP(=O)(O)O)O2)c(=O)[nH]c1=O [TTP]
- Relative activity in % (ATP=100) (1-methylhydantoinase [1]): 0%

Molecule: CC(=O)O [NH4 acetate]
- Relative activity in % (30 mmol/liter ammonium sulphate (AS)=100) (1-methylhydantoinase [2]; [7]): 98%

Molecule: O=c1ccn([C@@H]2O[C@H](COP(=O)(O)OP(=O)(O)OP(=O)(O)O)[C@@H](O)[C@H]2O)c(=O)[nH]1 [UTP]
- Relative activity in % (ATP=100) (1-methylhydantoinase [1]): 0%

Molecule: O=S(=O)([O-])[O-].[Na+].[Na+] [Na2 SO4]
- Relative activity in % (30 mmol/liter ammonium sulphate (AS)=100) (1-methylhydantoinase [2]; [7]): 39%

Molecule: [F-].[Na+] [NaF]
- Inhibition (in words) (1-methylhydantoinase [3]): Significant inhibition
- inhibition (1-methylhydantoinase [3]; 1×10^-2 mol/liter): 100%

Molecule: [Cl-].[Na+] [NaCl]
- Relative activity in % (30 mmol/liter ammonium sulphate (AS)=100) (1-methylhydantoinase [2]; [7]): 41%

Molecule: Nc1ncnc2c1ncn2[C@@H]1O[C@H](COP(=O)(O)OP(=O)(O)OP(=O)(O)O)[C@@H](O)[C@H]1O [ATP, adenosine-5'-triphosphate]
- Relative activity in % (ATP=100) (1-methylhydantoinase [1]): 100%
- Km (1-methylhydantoinase [6]; TES 0.15 mol/liter, via sarcosine, read-out: Km ATP): 800 µM

Molecule: Nc1ncnc2c1ncn2[C@@H]1O[C@H](COP(=O)(O)OP(=O)(O)O)[C@@H](O)[C@H]1O [ADP]
- Relative activity in % (ATP=100) (1-methylhydantoinase [1]): 1%

Molecule: [Cl][Mn][Cl] [MnCl2]
- Relative activity in % (5 mmol/liter magnesium chloride=100) (1-methylhydantoinase [4]; metal salt 5 mmol/liter): 60%

Molecule: Nc1ncnc2c1ncn2[C@@H]1O[C@H](COP(=O)(O)O)[C@@H](O)[C@H]1O [AMP]
- Relative activity in % (ATP=100) (1-methylhydantoinase [1]): 0%

Molecule: O=S(=O)([O-])[O-].[K+].[K+] [K2 SO4]
- Relative activity in % (30 mmol/liter ammonium sulphate (AS)=100) (1-methylhydantoinase [2]; [7]): 59%

Molecule: O=P(O)(O)OP(=O)(O)O [PPi, pyrophosphate]
- Relative activity in % (ATP=100) (1-methylhydantoinase [1]): 0%

Molecule: N.N.O=S(=O)(O)O [(NH4)2 SO4, ammonium sulphate]
- Relative activity in % (30 mmol/liter ammonium sulphate (AS)=100) (1-methylhydantoinase [2]; [7]): 100%
- Relative activity in % (30 mmol/liter ammonium sulphate (AS)=100) (1-methylhydantoinase [2]; activator substance 10 mol/liter): 95%

Source: patent publication US4816393A, “Nucleoside triphosphate-dependent 1-methylhydantoinase, a process for obtaining it and the use thereof” (Boehringer Mannheim GmbH, priority 1984, dated 1989)
